In patent US8852629B2, “Drug delivery system for hydrophobic drugs” (Valeant Pharmaceuticals International, Inc., priority 2001, dated 2014):

Key:
[1] = storage stability (potency) of cryodesiccated MA composition; type: physicochemical; conditions: room temperature
Source text: Once formulated, the MA of the invention may be freeze-dried for long-term storage if desired. […] If the composition is freeze-dried, it may be packed in vials for subsequent reconstitution with a suitable aqueous solution, such as sterile water or sterile water containing a saccharide and/or other suitable excipients, just prior to use. For example, reconstitution may be by simply adding water for injection just prior to administration.

[2] = lability in an aqueous environment; type: physicochemical; conditions: must be lyophilized for storage
Source text: It has been a challenge to find suitable pharmaceutical formulations for hydrophobic polypyrrolic macrocyle based photosensitizers that can be filter sterilized and freeze dried, and can also be rapidly reconstituted in an aqueous medium prior to administration, while retaining a small particle size after rehydration. Photosensitive compounds such as verteporfin (BPD-MA) and QLT 0074 (EA6) must be lyophilized for storage, because they are labile in an aqueous environment.

Substance: benzoporphyrin derivative monoacid ring A [BPD-MA]
- period over which potency was maintained [1]: at least nine
- stability in an aqueous environment [2]: labile
